The values below come from US11950594B2, “Methods and compositions for inhibiting formation of biofilms” (INSTITUTE OF MICROBIOLOGY, CHINESE ACADEMY OF SCIENCES, priority 2019, dated 2024).

The structures appear in SMILES notation.

Experiment [1] has as its system PAO1 strains. As to the kind of experiment: Bacterial motility assay, swimming plate. To be noted: 37° C., 24 hours. The format is cell-based, Pseudomonas aeruginosa. The procedure: PAO1 strains were inoculated into a LBNS agar plate and were cultured overnight at 37° C. Single colonies were respectively inoculated on the surface of swimming plates with and without the coumarin-chalcone compound C9, and cultured at 37° C. for 24 hours. Then, a diameter of a translucent area formed by bacterial swimming on each swimming plate was measured.

Experiment [2] concerns LasR. Description: QS gene expression, GFP promoter fusion. In kind it is cell-based, Pseudomonas aeruginosa. To be noted: FIGS. 8A to 8D. An excerpt: (§1) The QS system may regulate the formation of biofilm and the expression of multiple virulence factors. Whether the coumarin-chalcone compound C9 influences the QS regulation system was further studied. In the embodiment, a green fluorescent protein (GFP) was used as a reporter gene to examine the influence of the coumarin-chalcone compound C9 on the QS system. In this experiment, the transcription regulator genes (including LasR, RhIR, and PqsR) in three QS systems of Pseudomonas aeruginosa were used to study the gene expression of the QS system. By PCR expansion, promoter regions of the three genes were transcriptionally fused with a promoterless GFP fusion expression vector pProbe-AT, respectively, to construct transcription fusion plasmids that can indicate the expression level of LasR, RhIR, and PqsR genes, which were used as representatives of the expression of the three QS systems.
(§2) The overnight cultured bacterial solution was inoculated into the freshly prepared LB liquid medium to make its OD600 at 0.25, and then cultured for 2 h. Fluorescence was measured at 4 h, 8 h, 12 h, 16 h, 20 h, 24 h, respectively, and the measurement was performed in a 96-well plate. Bacterial growth was monitored by measuring OD600. The gene expression level was normalized by dividing the fluorescence value by the OD600 value of each sample.
(§3) The effects of the coumarin-chalcone compound C9 on the transcription of the three known QS regulators LasR, RhIR, and PqsR were examined by gfp fusion. FIGS. 8A to 8D are schematic diagrams illustrating the inhibition of QS systems in P. aeruginosa by compound C9. The transcription of QS-related genes (LasI, LasR, RhII, RhIR, PqsA, and PqsR) was indicated by the green fluorescent intensity of GFP-tagged promoter region through pPROBE-AT′ plasmid, the data of a blank group, a control group, and an experimental group treated with a coumarin-chalcone compound C9 were presented.

Experiment [3] has as its system PqsR. As to the kind of experiment: QS gene expression, GFP promoter fusion. The format is cell-based, Pseudomonas aeruginosa. To be noted: FIGS. 8A to 8D.
Description: as §1, §2, §3

The test system of experiment [4] is RhIR. Description: QS gene expression, GFP promoter fusion. In kind it is cell-based, Pseudomonas aeruginosa. To be noted: FIGS. 8A to 8D.
Description: as §1, §2, §3

Experiment [5] deals with Pseudomonas aeruginosa. Description: Antibiotic susceptibility, filter paper method (inhibition area). In kind it is cell-based. To be noted: C9 5 mM in culture medium, versus control group. The procedure:
In the experiment, the coumarin-chalcone compound C9 (5 mM) was added to a culture medium, and an inhibition area of the corresponding antibiotics was measured by a conventional filter paper method.

Take `COc1cccc(/C=C/C(=O)c2cc3ccccc3oc2=O)c1` [Compound C9]: in experiment [1], the flagellate-mediated swimming ability result is recorded as “no effect”. Besides, the “transcription of LasR” value in experiment [2] is “downregulated”. Further, the “transcription of PqsR” value in experiment [3] is on record as “downregulated”. Besides, the “transcription of RhIR” value in experiment [4] is “downregulated”. For the same compound, the “susceptibility of Pseudomonas aeruginosa to fluoroquinolone antibiotics (CIP)” value in experiment [5] was “significantly higher”.
